13 molecules from ChEMBL document CHEMBL4312007, “First synthesis of merged hybrids phosphorylated azirino[2,1-b]benzo[e][1,3]oxazine derivatives as anticancer agents” (Eur J Med Chem, 2020) can be followed below.

One test deals with MRC5. In words: Cytotoxicity against human MRC5 cells assessed as reduction in cell growth incubated for 48 hrs by CCK8 assay. It counts as cell-based. Particulars: MRC5, 48 h. (Tetrazolium assays rely on reduction of a dye to a coloured formazan, in cell work by metabolically active cells.)
In the next test the test system is A549. Nature of the test: Antiproliferative activity against human A549 cells assessed as inhibition of cell growth incubated for 48 hrs by CCK8 assay. The settings on record: A549, 48 h. The class given is functional, cell-based.
The next test concerns HEK293. In words: Antiproliferative activity against HEK293 cells assessed as inhibition of cell growth incubated for 48 hrs by CCK8 assay. It counts as functional, cell-based. Particulars: Homo sapiens, HEK293, 48 h.

As a reminder, the IC50 is the concentration that inhibits the measured activity by half.

Regarding `COc1cccc2c1O[C@@]1(C)[C@H](P(=O)(c3ccccc3)c3ccccc3)N1[C@H]2O` (relative stereo), the IC50 with MRC5 is > 50 µM; in the test on A549, 1.3 µM; with HEK293, > 50 µM.
`C[C@@]12Oc3ccc(F)cc3[C@H](O)N1[C@H]2P(=O)(c1ccccc1)c1ccccc1` (relative stereo): the IC50 with MRC5 is > 50 µM; in the test on A549 it was 19.6 µM; with HEK293, > 50 µM.
As to `CC[C@@]12Oc3ccc(C)cc3[C@H](O)N1[C@H]2P(=O)(c1ccccc1)c1ccccc1` (relative stereo), the IC50 with MRC5 was > 50 µM; in the test on A549, 12.9 µM; with HEK293 it was > 50 µM.
With `Cc1ccc2c(c1)[C@H](O)N1[C@@H](P(=O)(c3ccccc3)c3ccccc3)[C@]1(C)O2` (relative stereo), the IC50 is > 50 µM with MRC5, 3.2 µM with A549 and > 50 µM with HEK293.
For the molecule `CC(C)OP(=O)(OC(C)C)[C@@H]1N2[C@@H](O)c3ccccc3O[C@@]12C` (relative stereo), the values for the IC50 in the test with MRC5, with A549 and with HEK293 were > 50 µM, 3 µM and > 50 µM, respectively.
Consider `CC[C@@]12Oc3c(OC)cccc3[C@H](O)N1[C@H]2P(=O)(c1ccccc1)c1ccccc1` (relative stereo), for which the values for the IC50 in the test on MRC5, in the test with A549 and in the test on HEK293 were > 50 µM, 20.7 µM and > 50 µM, respectively.
Regarding `CC[C@@]12Oc3ccccc3[C@](C)(O)N1[C@H]2P(=O)(c1ccccc1)c1ccccc1` (relative stereo), the figures for the IC50 in the test on MRC5, with A549 and in the test with HEK293 were > 50 µM, 3.2 µM and > 50 µM, respectively.
For `C[C@]1(O)c2ccccc2O[C@@]2(C)[C@H](P(=O)(c3ccccc3)c3ccccc3)N12` (relative stereo), the IC50 is > 50 µM in the test with MRC5, 21.1 µM in the test on A549 and > 50 µM with HEK293.
Take `CC(C)OP(=O)(OC(C)C)[C@@H]1N2[C@@](C)(O)c3ccccc3O[C@@]12C` (relative stereo): the IC50 in the test with MRC5 was > 50 µM; with A549 it was 10.3 µM; in the test on HEK293, > 50 µM.
In the case of `CCOP(=O)(OCC)[C@@H]1N2[C@@H](O)c3ccccc3O[C@@]12C` (relative stereo), the values for the half-inhibitory concentration (IC50) in the test on MRC5 and in the test with A549 were > 50 µM and 15.8 µM, respectively.
With `C[C@@]12Oc3ccccc3[C@H](O)N1[C@H]2P(=O)(c1ccccc1)c1ccccc1` (relative stereo), the IC50 in the test with MRC5 was > 50 µM; in the test on A549, 2.7 µM; in the test with HEK293 it was > 50 µM.
On to `CC[C@@]12Oc3ccccc3[C@H](O)N1[C@H]2P(=O)(c1ccccc1)c1ccccc1` (relative stereo), for which the IC50 in the test on MRC5 is > 50 µM; with A549, 10.4 µM; in the test on HEK293 it was > 50 µM.
As for `COc1cccc2c1C(=O)c1c(O)c3c(c(O)c1C2=O)C[C@@](O)(C(=O)CO)C[C@@H]3O[C@H]1C[C@H](N)[C@H](O)[C@H](C)O1` [DOXORUBICIN], the IC50 in the test on MRC5 is > 50 µM; in the test with HEK293, 5.68 µM.
